Results taken from patent US4835176A, “Glycookadaic acid, preparation thereof and use thereof” (priority 1987, dated 1989).
Values after ≈ are worked out from the molar mass of the structure shown. “Also recorded” adds a separate entry of the source.

Key:
[1] = test system: lipoprotein lipase (LPL) of 3T3-L1 cells; assay: Recovery effect on cachectin/TNF-induced reduction of lipoprotein lipase (LPL) in adipocytes; type: cell-based
Protocol: (§1) 3T3-L1 cells (5×10^4 cells per well) were cultivated in wells of 48-well test plate for about one week until the cell growth reached became confluent. Test drug and 4×10^-10 ^- 10 g/ml (32 unit/ml as TNF activity) of recombinant human TNF (rHu-TNF) were added, and the cultivation was further continued.
(§2) After 20 hours, the test drug and rHu-TNF were removed. Then 10 unit/ml of heparin was added, and after 90 min., activity of lipoprotein lipase (LPL) isolated from 3T3-L1 cell by heparin was measured according to the method as described in Nelsson-Ehle, P., et al., J. Lipid Res., 17, 536 (1976).
(§3) On the LPL activity measured, the recovery on the reduction of lipoprotein lipase production was calculated by the following formula: [formula]
(§4) ^1 The experiment was performed in the presence of rHu TNF (32

[2] = as above; type: cell-based; details: mouse, 3t3-l1 cells; read-out: Concentration at which OK exhibits cytotoxicity
Protocol: as §1, §2, §3, §4

[3] = Acute toxicity, i.p. injection in BDF1 mouse; type: in vivo; details: in vivo, ip, 5 weeks old, female, intraperitoneal, read-out: 50% Lethal dose (LD50)
Protocol: (§5) A test drug was injected into the peritoneal cavity of BDF1 mouse (5 weeks old, female) to measure 50% lethal dose (LD50).

[4] = test system: L 929 cells; assay: Effect on cytotoxic activity of TNF; type: cell-based
Protocol: L 929 cells (10^4 cells/well) was cultivated on a test plate having 96 wells, and after 24 hours, a test drug and recombinant human-tumor necrosis factor (rHu - TNF) were added thereto such that rHu - TNF became 2.5×10^-11 g/ml (TNF activity of 2 unit/ml), and then, after 24 hours, the number of living cells was measured.
The effect of test drug on the cytotoxicity of TNF was calculated according to the above-mentioned formula (A) and shown by "%" value.
^1 The experiments were effected in the presence of TNF (2 units/ml)

[5] = test system: P388 leukemia cell; assay: Cytotoxicity, 50% growth inhibition of P388 leukemia cell; type: cell-based; details: Mus musculus, read-out: 50% growth inhibition concentration (IC50)
Protocol: (§6) B-16 melanoma cell, P388 leukemia cell or L 929 cell was cultivated together with a prescribed amount of a test drug on a 24-well or 96-well test plate and the number of living cells was measured one day or 3 days later to know the 50% growth inhibition concentration.

[6] = test system: B-16 melanoma cell; assay: Cytotoxicity, 50% growth inhibition of B-16 melanoma cell; type: cell-based
Protocol: as §6

[7] = test system: L 929 cell; assay: Cytotoxicity, 50% growth inhibition of L 929 cell; type: cell-based
Protocol: as §6

[8] = test system: BDF1 mouse; assay: Acute toxicity, i.p. injection in BDF1 mouse; type: in vivo
Protocol: as §5

[9] = Stability; type: physicochemical
[10] = Acid or base; type: physicochemical
[11] = Solubility; type: physicochemical

| Molecule | Effect on lowered LPL production (in words) ([1]; OK, even at 0.1 μg/ml) | MCC [2] | LD50 [3] | Effect on cytolytic activity of TNF (in words) [4] | IC50 [5] | IC50 ([6]; Mus musculus, B16, 24 h, B-16 melanoma, cultivated for one day, read-out: 50% growth inhibition concentration (IC50)) | IC50 ([7]; Mus musculus, L929, read-out: 50% growth inhibition concentration (IC50)) | Recovery of LPL generation in adipocytes (in words) [1] | Concentration with effect of recovering from the lowering of production of lipoprotein lipase ([1]; 3T3-L1 cells with rHu-TNF) | Toxicity (in words) [8] | 50% Lethal dose (LD50) ([8]; 5 weeks old, female, intraperitoneal) | LD50 of GOK relative to that of OK ([8]; intraperitoneal) | Stability ([9]; acid) | Stability ([9]; alkali) | 50% growth inhibition concentration (IC50) ([6]; B-16 melanoma, cultivated for one day) | Cytotoxicity compared with OK ([6]; all cell species of Table 1) | 50% growth inhibition concentration (IC50) [7] | Acid or base [10] | Solubility ([11]; acetone or chloroform) | Solubility ([11]; methanol, ethanol or pyridine) |
| --- | --- | --- | --- | --- | --- | --- | --- | --- | --- | --- | --- | --- | --- | --- | --- | --- | --- | --- | --- | --- |
| C=C1C(O)C2OC3(CCC(C=CC(C)C4CC(C)=CC5(OC(CC(C)(O)C(=O)O)CCC5O)O4)O3)CCC2OC1C(O)CC(C)C1OC2(CCCCO2)CCC1C (stereo not drawn) [OK, okadaic acid] | did not exhibit the effect of inhibition | 0.1 µg/mL | 0.16 mg/kg | Neither GOK nor OK affected the cytolytic activity of TNF | 0.024 µg/mL (≈ 0.0298 µM) | 0.018 µg/mL (≈ 0.0224 µM) | 0.084 µg/mL (≈ 0.104 µM) | – | – | – | – | – | – | – | – | – | – | – | – | – |
| glycookadaic acid [GOK] | – | – | – | Neither GOK nor OK affected the cytolytic activity of TNF; also recorded: does not suppress the cytotoxic activity of cachectin/TNF toward cancer cells | – | – | – | specifically recovers the lowering effect on the generation of lipoprotein lipase in adipocytes | 3 to 10 µg/mL | toxicity of GOK is low; also recorded: far safer drug than OK | > 16 mg/kg | ≥ 100 times | Unstable to acid | Relatively stable to alkali | 19 µg/mL | much weaker than that of OK | 28 µg/mL | Weekly acidic substance | Insoluble or sparsely soluble | Easily soluble |
